Assay results published in patent US10287269B2, “Pyrazolyl pyrimidinone compounds as PDE2 inhibitors” (Merck Sharp & Dohme Corp., priority 2015, dated 2019).
Read-outs that look alike come from different tables or passages of the source.

Target: T1, Rhesus PDE2A3 (Macaca mulatta, UniProt B3VTJ2)
T1 construct: made in house; host or cells: AD293 cells, transient transfection, pcDNA3.3-TOPO; lysate supernatant used as enzyme
T1 sequence (B3VTJ2 1-941): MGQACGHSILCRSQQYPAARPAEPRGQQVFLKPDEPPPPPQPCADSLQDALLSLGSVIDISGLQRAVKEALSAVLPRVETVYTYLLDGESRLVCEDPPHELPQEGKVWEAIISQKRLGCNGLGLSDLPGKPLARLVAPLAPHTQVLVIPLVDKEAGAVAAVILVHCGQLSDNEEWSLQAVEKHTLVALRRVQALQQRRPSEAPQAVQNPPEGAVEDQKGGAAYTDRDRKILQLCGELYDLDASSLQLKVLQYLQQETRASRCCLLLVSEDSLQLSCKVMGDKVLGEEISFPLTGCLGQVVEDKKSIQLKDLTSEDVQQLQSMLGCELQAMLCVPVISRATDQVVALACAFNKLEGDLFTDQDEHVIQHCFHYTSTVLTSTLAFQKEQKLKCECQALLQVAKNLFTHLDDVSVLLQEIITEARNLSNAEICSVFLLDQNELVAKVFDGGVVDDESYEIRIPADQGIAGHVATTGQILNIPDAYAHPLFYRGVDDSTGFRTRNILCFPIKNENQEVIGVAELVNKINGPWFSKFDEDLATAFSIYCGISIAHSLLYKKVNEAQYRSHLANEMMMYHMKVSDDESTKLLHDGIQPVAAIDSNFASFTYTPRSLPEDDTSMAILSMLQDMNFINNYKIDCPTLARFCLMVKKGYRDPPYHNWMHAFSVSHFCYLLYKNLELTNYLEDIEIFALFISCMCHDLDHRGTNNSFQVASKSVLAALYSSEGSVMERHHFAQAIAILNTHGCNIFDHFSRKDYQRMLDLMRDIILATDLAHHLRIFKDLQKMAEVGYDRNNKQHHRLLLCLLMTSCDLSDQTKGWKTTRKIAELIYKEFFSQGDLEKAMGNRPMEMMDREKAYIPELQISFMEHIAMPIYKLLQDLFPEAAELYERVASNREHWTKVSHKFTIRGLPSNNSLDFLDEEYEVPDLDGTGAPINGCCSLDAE
Experiment: PDE2 fluorescence polarization (IMAP FP) inhibition assay, rhesus enzyme
Format: biochemical, rhesus macaque
Summary of the method: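 Lysate of AD293 cells transiently expressing rhesus PDE2A3, diluted for ~20% substrate conversion, with 50 nM FAM-cAMP and 1 uM cGMP activator in pH 7.2 Tris/MgCl2 buffer, 60 min at room temperature.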

[1] = Lab B, read-out: Rhesus PDE2 Ki (nM) Lab B
[2] = Lab A, read-out: Rhesus PDE2 Ki (nM) Lab A

Row | Compound | Ki [1] [nM] | Ki [2] [nM]
1 | Cc1nc(-c2cc([C@H](C)c3ccc(C(F)(F)F)cc3)[nH]n2)cc(=O)[nH]1 (single isomer, unassigned) [Example 24] | 154 | 
2 | Cc1nc(-n2cc(C(C)c3ccc(C4(C)CC4)cc3)cn2)cc(=O)[nH]1 (stereo not shown) [Example 40, 2-methyl-6-(4-(1-(4-(1-methylcyclopropyl)phenyl)ethyl)-1H-pyrazol-1-yl)pyrimidin-4(3H)-one] | 211 | 
3 | Cc1nc(-c2ccn(C(C)c3ccc(C(F)(F)F)cc3)n2)cc(=O)[nH]1 (single isomer, unassigned) [Example 77, (R)- or (S)-2-methyl-6-(1-(1-(4-(trifluoromethyl)phenyl)ethyl)-1H-pyrazol-3-yl)pyrimidin-4(3H)-one] | 542 | 
4 | COc1ccc(Cc2nc(-c3cnn(C(C)c4ccc(C(F)(F)F)cc4F)c3)cc(=O)[nH]2)cc1 (single isomer, unassigned) [Example 138, (R)- or (S)-6-(1-(1-(2-fluoro-4-(trifluoromethyl)phenyl)ethyl)-1H-pyrazol-4-yl)-2-(4-methoxybenzyl)pyrimidin-4(3H)-one] | 1.6 | 5.6
5 | Cc1ccc(C(C)n2cc(-c3cc(=O)[nH]c(C)n3)cn2)c(Cl)c1 (single isomer, unassigned) [Example 148, (R)- or (S)-6-(1-(1-(2-chloro-4-methylphenyl)ethyl)-1H-pyrazol-4-yl)-2-methylpyrimidin-4(3H)-one] |  | 47.9
6 | COc1cc(Cc2nc(-c3cnn(C(C)c4ccc(C(F)(F)F)cc4F)c3)cc(=O)[nH]2)ccc1F (single isomer, unassigned) [Example 142, (R)- or (S)-2-(4-fluoro-3-methoxybenzyl)-6-(1-(1-(2-fluoro-4-(trifluoromethyl)phenyl)ethyl)-1H-pyrazol-4-yl)pyrimidin-4(3H)-one] | 1.4 | 3.3
7 | Cc1nc(-c2cnn(C(C)c3ccc(OC(F)(F)F)cc3)c2)cc(=O)[nH]1 (single isomer, unassigned) [Example 127, (R)- or (S)-2-methyl-6-(1-(1-(4-(trifluoromethoxy)phenyl)ethyl)-1H-pyrazol-4-yl)pyrimidin-4(3H)-one] | 130 | 
8 | Cc1nc(-c2cnn(C(C)c3ccc(S(F)(F)(F)(F)F)cc3)c2)cc(=O)[nH]1 (single isomer, unassigned) [Example 63, (S)- or (R)-2-methyl-6-(1-(1-(4-(pentafluorosulfanyl)phenyl)ethyl)-1H-pyrazol-4-yl)pyrimidin-4(3H)-one] | 99.3 | 
9 | Cc1ccc(C(C)n2cc(-c3cc(=O)[nH]c(C)n3)cn2)cc1 (stereo not shown) [Example 153, 2-methyl-6-(1-(1-(p-tolyl)ethyl)-1H-pyrazol-4-yl)pyrimidin-4(3H)-one] | 825 | 
10 | COc1ccc(Cc2nc(-c3cnn(C(C)c4ccc(C(F)(F)F)cc4)c3)cc(=O)[nH]2)cc1OC (single isomer, unassigned) [Example 61, (S)- or (R)-2-(3,4-dimethoxybenzyl)-6-(1-(1-(4-(trifluoromethyl)phenyl)ethyl)-1H-pyrazol-4-yl)pyrimidin-4(3H)-one] | 1.8 | 2
11 | COc1ccc(Cc2nc(-c3cnn(C(C)c4ccc(S(F)(F)(F)(F)F)cc4)c3)cc(=O)[nH]2)cc1OC (single isomer, unassigned) [Example 65, (S)- or (R)-2-(3,4-dimethoxybenzyl)-6-(1-(1-(4-(pentafluorosulfanyl)phenyl)ethyl)-1H-pyrazol-4-yl)pyrimidin-4(3H)-one 4(3H)-one] | 9.9 | 22
12 | Cc1nc(-c2cnn(C(C)c3ccc(C4CC4)cc3C)c2)cc(=O)[nH]1 (single isomer, unassigned) [Example 94, (S)- or (R)-6-(1-(1-(4-cyclopropyl-2-methylphenyl)ethyl)-1H-pyrazol-4-yl)-2-methylpyrimidin-4(3H)-one] |  | 40.8
13 | COc1ccc(Cc2nc(-n3ccc(C(C)c4ccc(C(F)(F)F)cc4)n3)cc(=O)[nH]2)cc1OC (single isomer, unassigned) [Example 133, (R)- or (S)-2-(3,4-dimethoxybenzyl)-6-(3-(1-(4-(trifluoromethyl)phenyl)ethyl)-1H-pyrazol-1-yl)pyrimidin-4(3H)-one] | 64.8 | 
14 | COc1ccc(Cc2nc(-n3cc(C(C)c4ccc(C(F)(F)F)cc4)cn3)cc(=O)[nH]2)cc1OC (stereo not shown) [Example 137, 2-(3,4-dimethoxybenzyl)-6-(4-(1-(4-(trifluoromethyl)phenyl)ethyl)-1H-pyrazol-1-yl)pyrimidin-4(3H)-one] | 0.6 | 1.3
15 | CCc1ccc(C(C)n2cc(-c3cc(=O)[nH]c(C)n3)cn2)c(Cl)c1 (single isomer, unassigned) [Example 99, (R)- or (S)-6-(1-(1-(2-chloro-4-ethylphenyl)ethyl)-1H-pyrazol-4-yl)-2-methylpyrimidin-4(3H)-one] |  | 10.7
16 | Cc1nc(-c2cnn(C(C)c3ccc(C(F)(F)F)cc3)c2C)cc(=O)[nH]1 (single isomer, unassigned) [Example 81, (R)- or (S)-2-methyl-6-(5-methyl-1-(1-(4-(trifluoromethyl)phenyl)ethyl)-1H-pyrazol-4-yl)pyrimidin-4(3H)-one] | 232 | 
17 | Cc1nc(-c2cnn(C(C)c3ccc(C(F)(F)F)cc3)c2C)cc(=O)[nH]1 (single isomer, unassigned) [Example 82, (S)- or (R)-2-methyl-6-(5-methyl-1-{(1R)-1-[4-(trifluoromethyl)phenyl]ethyl}-1H-pyrazol-4-yl)pyrimidin-4(3H)-one] | 192 | 

More lines, now with the values ahead:

Row | Ki [1] [nM] | Ki [2] [nM] | Compound
18 | 29.5 |  | Cc1nc(-n2cc([C@H](C)c3ccc(C(F)(F)F)cc3)cn2)cc(=O)[nH]1 (single isomer, unassigned) [Example 4]
19 | 75.8 |  | Cc1nc(-n2cc([C@](C)(O)c3ccc(C(F)(F)F)cc3F)cn2)cc(=O)[nH]1 (single isomer, unassigned) [Example 16]
20 | 138 |  | Cc1nc(-n2cc(C(c3ccc(C(F)(F)F)cc3)C(C)C)cn2)cc(=O)[nH]1 (stereo not shown) [Example 130]
21 | 18.2 |  | Cc1nc(-n2cc([C@H](CO)c3ccc(C(F)(F)F)cc3F)cn2)cc(=O)[nH]1 (single isomer, unassigned) [Example 20]
22 | 105 |  | Cc1nc(-n2cc([C@H](CO)c3ccc(C(F)(F)F)cc3F)cn2)cc(=O)[nH]1 (single isomer, unassigned) [Example 19]
23 | 7.2 |  | Cc1nc(-n2cc(C(C)c3ccc(C(F)(F)F)cc3F)cn2)cc(=O)[nH]1 (single isomer, unassigned) [Example 52, (R)- or (S)-6-(4-(1-(2-fluoro-4-(trifluoromethyl)phenyl)ethyl)-1H-pyrazol-1-yl)-2-methylpyrimidin-4(3H)-one]
24 |  | 25.7 | CCc1nc(-c2cnn(C(C)c3ccc(C(F)(F)F)cc3F)c2)cc(=O)[nH]1 (stereo not shown) [Example 36, 2-ethyl-6-(1-(1-(2-fluoro-4-(trifluoromethyl)phenyl)ethyl)-1H-pyrazol-4-yl)pyrimidin-4(3H)-one]
25 | 213 |  | Cc1nc(-n2cc([C@]3(c4ccc(C(F)(F)F)cc4)CCCO3)cn2)cc(=O)[nH]1 (single isomer, unassigned) [Example 21]
26 | 13 | 13.1 | Cc1nc(-c2cnn(C(C)c3ccc(C(F)(F)F)cc3C)c2)cc(=O)[nH]1 (single isomer, unassigned) [Example 57, (S)- or (R)-2-methyl-6-(1-(1-(2-methyl-4-(trifluoromethyl)phenyl)ethyl)-1H-pyrazol-4-yl)pyrimidin-4(3H)-one]
27 | 99.9 |  | Cc1nc(-n2cc(C(C)c3ccc(C4CC4)cc3)cn2)cc(=O)[nH]1 (stereo not shown) [Example 39, 6-(4-(1-(4-cyclopropylphenyl)ethyl)-1H-pyrazol-1-yl)-2-methylpyrimidin-4(3H)-one]
28 |  | 25 | CC(c1ccc(C(F)(F)F)cc1F)n1cc(-c2cc(=O)[nH]c(C3CC3)n2)cn1 (stereo not shown) [Example 10]
29 | 94.5 |  | Cc1nc(-n2cc(C3(C)OCc4cc(C(F)(F)F)ccc43)cn2)cc(=O)[nH]1 (single isomer, unassigned) [Example 28]
30 | 29.3 |  | Cc1nc(-c2cc([C@H](C)c3ccc(C(F)(F)F)cc3)[nH]n2)cc(=O)[nH]1 (single isomer, unassigned) [Example 23]
31 | 466 |  | Cc1nc(-n2ccc([C@H](C)c3ccc(C(F)(F)F)cc3)n2)cc(=O)[nH]1 (single isomer, unassigned) [Example 6]
